Patent publication US7211602B2, “Treatment of neurodegenerative disorders through the modulation of the polyamine pathway” (ALS Therapy Development Foundation, Inc., priority 2001, dated 2007)
Read-outs that look alike come from different tables or passages of the source.

Tests used:
[1] = test system: SOD1 G93A mice
Description: • (i) Model Description: The SOD1 G93A (high copy) mouse model was used as the model for ALS. This mouse model carries 25 copies of the human G93A SOD mutation and is driven by the endogenous promoter. Survival in the mouse is copy dependent. The high copy G93A has a median survival of around 128 days. High molecular weight complexes of mutant SOD protein are seen in the spinal cord beginning around day 30. At day 60 reactive astrocytosis (GFAP reactive) are observed; activated microglia are observed from day 90 onwards.
DFMO was obtained in oral form from ILEX Oncology, Inc (San Antonio, Tex.). • (iv) Methods: Forty (n=40) SOD1 G93A high copy mice obtained from Jackson Laboratory (Bar Harbor, Me.) were separated into two groups of twenty (n=20) with an equal number of males (n=10) and females (n=10) in each group. The groups were also litter matched to reduce group variation. Male animals were singly housed and females were group housed to conserve space. […] When animals had difficulty in moving and taking care of themselves chow and water were replaced with food pellets in bedding and Jell-O for water. • (v) Pharmacological Agent Delivery: All pharmacological agents were administered to SOD1 G93A mice. DFMO was delivered according to a chronic delivery protocol applied in the human glioblastoma trial (UCSF Clinical trial protocol of ALS).
In Example 2, the animals were dosed at 3200 mg/Kg/day of DFMO in drinking water for 21 days followed by a 7 day drug holiday (no DFMO). In Example 3, the animals were continually dosed at 3200 mg/Kg/day of DFMO in drinking water. Controls animals were given water as vehicle. All treatments are performed 7 days per week and treatment was initiated at day 60 of life. The treated group continued to receive 3200 mg/kg/day of DFMO in drinking water until a neurological score of 2 (See section (vi) below) at which point drug was delivered via intraperitineal injection (IP) injection. When a neurological score of 2 is attained, the animals are no longer capable of drinking themselves due to paralysis. At this point, the same dosage of DFMO is administered to the animal in IP injection form. Controls were given water as vehicle until a neurological score of 2 at which point they were injected with saline as vehicle.
In Example 6, hydroxyurea was administered by intraperitineal injection at a dose of 250 mg/Kg/day once daily for 7 days a week, beginning at day 50 until day 110.
The animals are sacrificed at this stage if alive. • (vii) End Points and Statistics: The primary end point is survival with secondary end points of neurological score and body weight. Neurological score observations and body weight are made and recorded five days per week. • (viii) Statistical Analysis: Statistical analysis on body weight and neurological score was performed using mixed linear model repeated measure ANOVA. Survival analysis was performed by Kaplan-Meier analysis using the frailty model for sex and litter correction.

[2] = test system: patients with advanced non-small cell lung cancer; details: Hahm et al. 2002; cited from earlier work
[3] = test system: ODC; details: cited from earlier work

## NCCCC(N)(C(=O)O)C(F)F (racemic) [DFMO, 2-(Difuoromethyl)-DL-ornithine]
[1]; IP injection, 3200 mg/kg, male mice
  effect in male mice, ongoing IP injection study: positive male trend
[1]; continuous dosing 3200 mg/Kg/day in drinking water, no drug holiday, until death, FIGS. 4, 6 and 8
  Percent survival analysis: life span: extended the life span
[1]; continuous dosing 3200 mg/Kg/day, combined male and female, FIG. 5
  Neurological score analysis, combined male and female: protective
[1]; continuous dosing 3200 mg/Kg/day, FIG. 9
  Neurological score analysis, female: protective
[1]; continuous dosing 3200 mg/Kg/day, male, FIG. 7
  Neurological score analysis, male: protective
[1]; discontinuous dosing 3200 mg/Kg/day, combined male and female mice
  Neurological score analysis, combined results: No effect
[1]; discontinuous dosing 3200 mg/Kg/day, female mice, during the drug delivery period, FIG. 3
  Neurological score analysis, female mice: protective
[1]; discontinuous dosing 3200 mg/Kg/day, male mice
  Neurological score analysis, male mice: No effect
[1]; discontinuous dosing, 3200 mg/Kg/day in drinking water, 21 days on / 7 day holiday, FIG. 2
  Percent survival analysis: onset of disease and survival: delays the onset of disease and extends the survival
[1]; female SOD1 G93A mice, 3200 mg/Kg/day in drinking water for 21 days followed by 7 day drug holiday, control group 30%, FIG. 2
  deaths of animals in the treatment group that occurred during the drug holiday or a few days immediately succeeding the holiday: 70%

## CCNCCCNCCCNCCCNCC [DENSPM, N(1),N(11)-diethylnorspermine]
[1]; intraperitoneal 24 mg/kg/day twice daily till death, FIG. 13
  Neurological score analysis, female: protective
[1]; intraperitoneal 24 mg/kg/day twice daily, 7 days a week till death, female mice, FIG. 12
  Percent survival analysis: onset of disease and survival: delays the onset of disease and extends the survival
[2]
  safety of administration to patients: minimal toxicity

## NC(=O)NO [hydroxyurea]
[1]; intraperitoneal 250 mg/Kg/day once daily, day 50 until day 110, female mice, FIG. 10
  Percent survival analysis: life span: extended the life span
[1]; intraperitoneal 250 mg/Kg/day once daily, day 50 until day 110, FIG. 11
  Neurological score analysis, female: protective

## NCCCCNCCCN [spermidine]
[3]
  concentration in the culture medium that can inhibit ODC production for hours: 50 µM
